{"source": "ChEMBL document CHEMBL1153569", "about": "“Development of QSAR models for predicting hepatocarcinogenic toxicity of chemicals” (Eur J Med Chem, 2009)"}
{"organism": "Mus musculus", "assay": "Hepatotoxicity in mouse assessed as carcinogenic potency", "conditions": "in vivo"}
{"compound": "ClCC(Cl)(Cl)Cl", "pTD50": 2.419}
{"compound": "O=[N+]([O-])c1ccc2[nH]cnc2c1", "pTD50": 2.458}
{"compound": "COc1ccc([N+](=O)[O-])cc1N", "pTD50": 1.93}
{"compound": "Cc1ccc([N+](=O)[O-])cc1N", "pTD50": 2.74}
{"compound": "Nc1ccc(Oc2ccc(N)cc2)cc1", "pTD50": 2.9}
{"compound": "COc1ccc(C)cc1N", "pTD50": 2.639}
{"compound": "O=[N+]([O-])c1ccc2c3c(cccc13)CC2", "pTD50": 3.638}
{"compound": "Nc1cccc2c(N)cccc12", "pTD50": 3.14}
{"compound": "Cc1cc(C)c(N)cc1C", "pTD50": 4.344}
{"compound": "Cc1ccc(N)cc1N", "pTD50": 3.66}
{"compound": "NC(=S)NNC(N)=S", "pTD50": 1.423}
{"compound": "Nc1cc(Cl)c(N)c(Cl)c1", "pTD50": 1.941}
{"compound": "CCc1ccc(C(c2ccc(CC)cc2)C(Cl)Cl)cc1", "pTD50": 1.988}
{"compound": "Nc1ccc(Cl)cc1N", "pTD50": 1.73}
{"compound": "Cc1ccc(Cl)cc1N", "pTD50": 2.77}
{"compound": "Nc1ccc(Cl)c(N)c1", "pTD50": 1.9}
{"compound": "Nc1ccc2c(c1)C(=O)c1ccccc1C2=O", "pTD50": 2.185}
{"compound": "ClC(Cl)C(Cl)Cl", "note": "[1,1,2,2-TETRACHLOROETHANE]", "pTD50": 3.63}
{"compound": "ClCC(Cl)CCl", "note": "[1,2,3-TRICHLOROPROPANE]", "pTD50": 4.041}
{"compound": "Clc1ccc(Cl)cc1", "note": "[1,4-DICHLOROBENZENE]", "pTD50": 2.328}
{"compound": "Nc1c(Br)cc(Br)c2c1C(=O)c1ccccc1C2=O", "note": "[1-AMINO-2,4-DIBROMOANTHRA-QUINONE]", "pTD50": 2.313}
{"compound": "Clc1cc2c(cc1Cl)Oc1cc(Cl)c(Cl)cc1O2", "note": "[2,3,7,8-TETRACHLORODIBENZO-P-DIOXIN]", "pTD50": 8.867}
{"compound": "Nc1ccc(Sc2ccc(N)cc2)cc1", "note": "[4,4'-THIODIANILINE]", "pTD50": 3.809}
{"compound": "ClC(Cl)Br", "note": "[BROMODICHLOROMETHANE]", "pTD50": 3.056}
{"compound": "C=CC=C", "note": "[BUTADIENE]", "pTD50": 3.091}
{"compound": "Nc1cc(Cl)cc(C(=O)O)c1Cl", "note": "[CHLORAMBEN]", "pTD50": 1.607}
{"compound": "CCOC(=O)C(O)(c1ccc(Cl)cc1)c1ccc(Cl)cc1", "note": "[CHLOROBENZILATE]", "pTD50": 2.862}
{"compound": "ClC(Cl)Cl", "note": "[CHLOROFORM]", "pTD50": 3.361}
{"compound": "C=CC(=C)Cl", "note": "[CHLOROPRENE]", "pTD50": 3.689}
{"compound": "Nc1ccccc1C(=O)OC/C=C/c1ccccc1", "note": "[CINNAMYL ANTHRANILATE]", "pTD50": 1.529}
{"compound": "O=NN(O)c1ccccc1", "note": "[CUPFERRON]", "pTD50": 2.439}
{"compound": "C=C(C)[C@H]1CC=C(C)CC1", "note": "[D-LIMONENE]", "pTD50": 1.113}
{"compound": "ClC(Cl)=C(c1ccc(Cl)cc1)c1ccc(Cl)cc1", "note": "[DICHLORODIPHENYLDICHLOROETHYLENE]", "pTD50": 4.492}
{"compound": "C1COCCO1", "note": "[DIOXANE]", "pTD50": 1.883}
{"compound": "CCCl", "note": "[ETHYL CHLORIDE]", "pTD50": 0.93}
{"compound": "S=C1NCCN1", "note": "[ETHYLENE THIOUREA]", "pTD50": 3.341}
{"compound": "CNc1ccc(N(CCO)CCO)cc1[N+](=O)[O-]", "note": "[HC BLUE NO. 1]", "pTD50": 2.953}
{"compound": "ClC(Cl)(Cl)C(Cl)(Cl)Cl", "note": "[HEXACHLOROETHANE]", "pTD50": 2.683}
{"compound": "c1ccc(NNc2ccccc2)cc1", "note": "[HYDRAZOBENZENE]", "pTD50": 3.793}
{"compound": "O=C1C2(Cl)C3(Cl)C4(Cl)C(Cl)(Cl)C5(Cl)C3(Cl)C1(Cl)C5(Cl)C24Cl", "note": "(centres undefined) [KEPONE]", "pTD50": 5.662}
{"compound": "ClCCl", "note": "[METHYLENE CHLORIDE]", "pTD50": 1.581}
{"compound": "CN(C)c1ccc(C(=O)c2ccc(N(C)C)cc2)cc1", "note": "[MICHLER'S KETONE]", "pTD50": 3.383}
{"compound": "O=[N+]([O-])c1ccc(Oc2ccc(Cl)cc2Cl)cc1", "note": "[NITROFEN]", "pTD50": 3.203}
{"compound": "ClC(Cl)C(Cl)(Cl)Cl", "note": "[PENTACHLOROETHANE]", "pTD50": 3.39}
{"compound": "O=C1NC(=O)C(c2ccccc2)(c2ccccc2)N1", "note": "[PHENYTOIN]", "pTD50": 3.18}
{"compound": "C=C(Cl)CSC(=S)N(CC)CC", "note": "[SULFALLATE]", "pTD50": 3.32}
{"compound": "O=C(O)c1cc(/N=N/c2ccc(S(=O)(=O)Nc3ccccn3)cc2)ccc1O", "note": "[SULFASALAZINE]", "pTD50": 1.866}
{"compound": "Cc1noc(NS(=O)(=O)c2ccc(N)cc2)c1C", "note": "[SULFISOXAZOLE]", "pTD50": 2.004}
{"compound": "ClC(Cl)=C(Cl)Cl", "note": "[TETRACHLOROETHYLENE]", "pTD50": 3.1}
{"compound": "FC(F)=C(F)F", "note": "[TETRAFLUOROETHYLENE]", "pTD50": 2.907}
{"compound": "C1CCOC1", "note": "[TETRAHYDROFURAN]", "pTD50": 1.233}
{"compound": "CC(Cl)(Cl)Cl", "note": "[TRICHLOROETHANE]", "pTD50": 3.38}
{"compound": "ClC=C(Cl)Cl", "note": "[TRICHLOROETHYLENE]", "pTD50": 2.16}
{"compound": "CCCN(CCC)c1c([N+](=O)[O-])cc(C(F)(F)F)cc1[N+](=O)[O-]", "note": "[TRIFLURALIN]", "pTD50": 2.96}
